Results taken from the supplement of paper PMC10290057.
Where a name gives a salt, the structure may show the parent alone.

What was measured:
HCT116 [1] = test: AC50 cell viability (CellTiter-Glo); higher = less potent; settings: 48 h
HCT116 [2] = test: efficacy (fitted maximal change in viability relative to DMSO control); higher = less cytotoxic (negative = loss of viability); settings: 48 h
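For AC50 cell viability (CellTiter-Glo) in this document: HCT116 colorectal carcinoma cells screened at five concentrations per compound, luminescent viability scaled between DMSO wells and empty wells on each plate, curves fitted per compound.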
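For efficacy (fitted maximal change in viability relative to DMSO control) in this document: Luminescence-based viability readout, five doses per compound, normalized against on-plate DMSO and empty-well controls, followed by dose-response curve fitting for every drug.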

Row | Compound | AC50 cell viability (HCT116 [1]) | efficacy (HCT116 [2])
1 | CC(C)(O)CC(=O)NCCn1ccc2ncnc(Nc3ccc(Oc4cccc(C(F)(F)F)c4)c(Cl)c3)c21 [TAK-285] | 16.6 µM | -101%
2 | Cc1cc(C(=O)Nc2cc(Oc3ccc4nc(NC(=O)C5CC5)cn4n3)ccc2C)n(C)n1 [TAK-593] | 14.8 µM | -56.7%
3 | CCc1nc(-c2cccc(C)c2)c(-c2ccnc(NC(=O)c3ccccc3)c2)s1 [TAK-715] | 26.3 µM | -72.7%
4 | CC[S+](=O)([O-])c1cccc(-c2cc(C(=O)NC3CCN(C)CC3)c(C)c3[nH]c4ncc(C)cc4c23)c1 [TAK-901] | 0.417 µM | -76.3%
5 | CC1=N[NH]C=C1C2=CC\3=C(S2)C(=O)NC(=N3)\[C@@H]4CC5CCN4CC5 [TAK-931] | 2.63 µM | -65.2%
6 | COc1cc(C(=O)NC2CCN(C)CC2)c(F)cc1Nc1ncc2c(n1)N(C1CCCC1)CC(F)(F)C(=O)N2C [TAK-960] | 1.32 µM | -120%
7 | CCc1cc(C(N)=O)ccc1-n1nc(C(C)C)c2c(-n3cnc(-c4cnn(C)c4)c3)ccnc21 [TAS-116] | 1.05 µM | -65.3%
8 | Oc1ccc(-c2ccc(-c3cc(Nc4cccc(CNC5CC5)c4)[nH]n3)cc2)c(O)c1 [TCS-2312] | 3.32 µM | -77.1%
9 | N#Cc1c(NC(=O)c2cccc3ccccc23)sc2c1CCCC2 [TCS-JNK-5a] | 0.417 µM | -61.6%
10 | CCN1/C(=C/C(C)=O)Sc2ccc(OC)cc21 [TG-003] | 14.8 µM | -41.4%
11 | Cc1cnc(Nc2ccc(CN3CCOCC3)cc2)nc1Nc1cccc([S+](=O)([O-])NC(C)(C)C)c1 [TG-46] | 2.63 µM | -97.9%
12 | Cc1cnc(Nc2cccc(CN3CCOCC3)c2)nc1Nc1cccc([S+](=O)([O-])NC(C)(C)C)c1 [TG-89] | 1.66 µM | -35.5%
13 | CC(NC1=CC=CC=C1)C\2=C\C(=C/N3C(=O)\C=C(/N=C23)N4CCOCC4)C (centres undefined) [TGX-221] | 18.6 µM | -44.2%
14 | CN(C)C/C=C/C(=O)Nc1ccc(C(=O)Nc2cccc(Nc3ncc(Cl)c(-c4c[nH]c5ccccc45)n3)c2)cc1 [THZ1] | 0.0661 µM | -67.4%
15 | CN(C)C/C=C/C(=O)Nc1ccc(C(=O)N2CCC[C@@H](Nc3ncc(Cl)c(-c4c[nH]c5ccccc45)n3)C2)cc1 [THZ531] | 0.132 µM | -74.2%
16 | CN(C)C/C=C/C(=O)Nc1cccc(C(=O)Nc2cccc(Nc3ncc(Cl)c(-c4c[nH]c5ccccc45)n3)c2)c1 [THZ-2] | 0.0934 µM | -78.8%
17 | CC1=CC=CC=C1CN2C(=O)C/3=C(/CCN(CC4=CC=CC=C4)C3)N\5CC\N=C25 [TIC-10] | 2.95 µM | -62.1%
18 | CN1CCN(Cc2ccc(Nc3ncc(Cl)/c(=N\c4ccccc4[S+](=O)([O-])N(C)C)[nH]3)cc2)CC1 [TP-0903] | 0.027 µM | -65.8%
19 | CC(C)(O)[C@H]1CC[C@H](Nc2ccc3ncc(-c4cccc(C(F)(F)F)c4)n3n2)CC1 [TP-3654] | 1.66 µM | -43.7%

Row | Compound | AC50 cell viability (HCT116 [1]) | efficacy (HCT116 [2])
20 | NC(=O)Nc1sc(-c2ccc(F)cc2)cc1C(N)=O [TPCA-1] | 14.8 µM | -74.4%
21 | Cc1ccc([S+](=O)([O-])N[C@@H](Cc2ccccc2)C(=O)CCl)cc1 [TPCK] | 18.6 µM | -77.8%
22 | CCC(=O)N1CCOc2c(cc(-c3cc(OC)cc(OC)c3)cc2C(=O)N[C@H]2CCCN(C)C2)C1 [TPOP-146] | 20.9 µM | -79.1%
23 | C[C@H]1CNC(=O)c2cnn3ccc(nc23)N[C@H](C)c2cc(F)ccc2O1 [TPX-0005] | 2.35 µM | -87.5%
24 | Clc1ccccc1C(c1ccccc1)(c1ccccc1)n1cccn1 [TRAM-34] | 18.6 µM | -41.5%
25 | CC(C)c1ccccc1Cc1cc(C(=O)Nc2ccc([S+](=O)([O-])c3ccccc3C(C)(C)C)cc2)c(O)c(O)c1O [TW-37] | 20.9 µM | -90.9%
26 | Nc1cccc(-c2cc3c(Oc4cccc(O)c4)ncnc3[nH]2)c1 [TWS-119] | 11.8 µM | -90.2%
27 | CC(=O)Nc1ccc(C(=O)Nc2ccccc2N)cc1 [Tacedinaline] | 5.9 µM | -69.7%
28 | CCC(CC)C(c1ccc(Nc2nc3ccccc3s2)cc1)n1cncn1 (stereo not drawn) [Talarozole (R enantiomer)] | 20.9 µM | -96.4%
29 | CC/C(=C(\c1ccccc1)c1ccc(OCCN(C)C)cc1)c1ccccc1 [Tamoxifen] | 15.2 µM | -87.8%
30 | COc1cc2c(N3CCN(C(=O)Nc4ccc(OC(C)C)cc4)CC3)ncnc2cc1OCCCN1CCCCC1 [Tandutinib] | 18.6 µM | -76%
31 | C=CCNC1=C2C[C@@H](C)C[C@H](OC)[C@H](O)[C@@H](C)/C=C(\C)[C@H](OC(N)=O)[C@@H](OC)/C=C\C=C(/C)C(=O)NC(=CC1=O)C2=O [Tanespimycin] | 3.72 µM | -65.7%
32 | Cc1nc(-c2cn3c(n2)-c2ccc(-c4cnn(C(C)(C)C(N)=O)c4)cc2OCC3)n(C(C)C)n1 [Taselisib (GDC-0032)] | 5.9 µM | -77.1%
33 | CCCCCNC(=N)N/N=C/c1c[nH]c2ccc(OC)cc12 [Tegaserod maleate] | 7.42 µM | -92.3%
34 | CNC(=O)c1cc(COc2nnc(Nc3ccc(Cl)cc3)c3ccoc23)ccn1 [Telatinib] | 20.9 µM | -70.3%
35 | COc1cc([C@@H]2c3cc4c(cc3[C@@H](O[C@@H]3O[C@@H]5CO[C@@H](c6cccs6)O[C@H]5[C@H](O)[C@H]3O)[C@H]3COC(=O)[C@H]23)OCO4)cc(OC)c1O [Teniposide] | 4.17 µM | -104%
36 | COc1ccc(C[C@@H](C)[C@@H](C)Cc2ccc(OC)c(OC)c2)cc1OC [Terameprocol] | 1.05 µM | -51.5%
37 | COc1cc2c(Nc3ccc(Cl)c(Cl)c3F)ncnc2cc1OC[C@@H]1C[C@@H]2CN(C)C[C@@H]2C1 [Tesevatinib] | 10.5 µM | -119%
38 | C/C=C(/C)C(=O)O[C@H]1C(C)=C2[C@H]([C@@H]1OC(=O)CCCCCCC)[C@@](C)(OC(C)=O)C[C@H](OC(=O)CCC)[C@@]1(O)[C@H]2OC(=O)[C@@]1(C)O [Thapsigargin] | 0.0525 µM | -93.2%

Row | Compound | AC50 cell viability (HCT116 [1]) | efficacy (HCT116 [2])
39 | O=C(NCc1ccccc1)c1csc(Nc2ccncn2)n1 [Thiazovivin] | 20.9 µM | -84%
40 | COc1ccc2cc(-c3[nH]c(-c4ccc([S+](C)[O-])cc4)nc3-c3ccncc3)ccc2c1 (centres undefined) [Tie-2 kinase Inhibitor] | 23.5 µM | -89.1%
41 | Cn1c(CCCCCCC(=O)NO)nc2cc(N(CCCl)CCCl)ccc21 [Tinostamustine] | 2.95 µM | -84.7%
42 | Clc1ccc(C(Cn2ccnc2)OCc2ccsc2Cl)c(Cl)c1 (centres undefined) [Tioconazole] | 18.6 µM | -84.3%
43 | NC/1=N/C2=C([NH]C=N2)C(=S)N1 [Tioguanine] | 0.742 µM | -85.8%
44 | C[N]1C=NC=C1C(N)(C2=CC=C(Cl)C=C2)C3=CC\4=C(C=C3)N(C)C(=O)\C=C4C5=CC(=CC=C5)Cl (centres undefined) [Tipifarnib,Freebase] | 20.9 µM | -120%
45 | C[N]1C=NC=C1[C@@](N)(C2=CC=C(Cl)C=C2)C3=CC=C4N(C)C(=O)\C=C(\C5=CC=CC(=C5)Cl)C4=C3 [Tipifarnib] | 9.34 µM | -107%
46 | Nc1n[n+]([O-])c2ccccc2[n+]1[O-] [Tirapazamine] | 13.2 µM | -30.4%
47 | O=C1NC(=O)[C@@H](c2c[nH]c3ccccc23)[C@H]1c1cn2c3c(cccc13)CCC2 [Tivantinib (ARQ 197)] | 0.934 µM | -62.9%
48 | COc1cc2nccc(Oc3ccc(NC(=O)Nc4cc(C)on4)c(Cl)c3)c2cc1OC [Tivozanib (AV-951)] | 11.8 µM | -80.3%
49 | Cc1[nH]c(/C=C2\C(=O)Nc3ccc(F)cc32)c(C)c1C(=O)NCCN1CCCC1 [Toceranib] | 8.11 µM | -95.7%
50 | CC[C@@]1(O)C(=O)OCc2c1cc1n(c2=O)Cc2cc3c(CN(C)C)c(O)ccc3nc2-1.Cl [Topotecan hydrochloride] | 0.59 µM | -93%
51 | CCOC(=O)N1c2ccc(C(F)(F)F)cc2[C@@H](N(Cc2cc(C(F)(F)F)cc(C(F)(F)F)c2)C(=O)OC)C[C@H]1CC [Torcetrapib] | 8.33 µM | -45.4%
52 | CN(C)CCOc1ccc(/C(=C(/CCCl)c2ccccc2)c2ccccc2)cc1 [Toremifene citrate] | 20.9 µM | -99.7%
53 | CCC(=O)N1CCN(CC1)C2=C(C=C(C=C2)N3C(=O)\C=C/C4=C3C5=CC(=CC=C5N=C4)C6=CN=C7C=CC=CC7=C6)C(F)(F)F [Torin-1] | 0.0723 µM | -60%
54 | NC1=NC=C(C=C1)C2=CC=C3N=CC\4=C(N(C(=O)\C=C4)C5=CC(=CC=C5)C(F)(F)F)C3=C2 [Torin-2] | 0.166 µM | -96.6%
55 | CC(C)N1N/C(=C2\C=c3cc(O)ccc3=N2)c2c(N)ncnc21 [Torkinib] | 5.25 µM | -125%
56 | CC(C)C[C@@H](C(=O)N[C@H](C(=O)OC1CCCC1)c1ccccc1)[C@H](O)C(=O)NO [Tosedostat] | 4.17 µM | -95.7%
57 | Cc1cc(Nc2cc(N3CCN(C)CC3)nc(Sc3ccc(NC(=O)C4CC4)cc3)n2)[nH]n1 [Tozasertib] | 7.42 µM | -95.2%
